Laboratory results published in patent US5859333A, “Plants and processes for obtaining them” (Zeneca Limited, priority 1992, dated 1999).
Where two headings read alike, the source gives them in different places. Where no end group is shown, it is not given here.

What was measured:
sweet corn SGP = target: T1, sweet corn SGP (Zea mays, UniProt P80607); test: Self-glucosylating protein (SGP) assay, incorporation of 14C-glucose from UDP-[14C]glucose into TCA-precipitable protein; assay type: biochemical; conditions: for inhibitory effect on activity of sweet corn SGP: result in words; for stimulating effect of divalent cation on sweet corn SGP activity: concentration dependence measured, manganese at 5 mM
T1 construct: not recombinant
T1 sequence (P80607 whole entry): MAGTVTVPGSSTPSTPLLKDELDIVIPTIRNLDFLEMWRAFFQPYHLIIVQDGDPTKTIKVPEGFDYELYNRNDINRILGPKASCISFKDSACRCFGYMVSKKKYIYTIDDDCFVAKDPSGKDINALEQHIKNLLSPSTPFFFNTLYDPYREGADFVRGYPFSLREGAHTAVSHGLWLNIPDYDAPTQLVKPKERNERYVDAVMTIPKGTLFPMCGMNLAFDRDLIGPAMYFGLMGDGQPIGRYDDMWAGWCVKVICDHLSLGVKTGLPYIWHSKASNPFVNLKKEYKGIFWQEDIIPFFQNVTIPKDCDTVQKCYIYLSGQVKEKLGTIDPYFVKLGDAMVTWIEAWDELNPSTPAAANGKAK
Description: The reaction was stopped by the addition of 1 ml of 10% TCA (trichloroacetic acid). After standing for 10 minutes the sample was passed through a nitrocellulose filter, type HA 0.45 uM, washed with about 3 ml 10% TCA and approximately 10 ml of water and the filter dried under an infrared lamp. Following this, the filter was placed in 4 ml of scintillation liquid (Ecolume) and measured for ^14 C radioactivity in a Searle Delta 300 6890 liquid scintillation counter.
The radioactivity measured on the filter represents ^14 C-glucose that was incorporated into TCA-precipitable material (assuming no conversion to the glucose molecule into any other compound). […] Endogenously glucosylated SGP would not be detectable and could not be quantitated by this method.

Rabbit muscle SGP = target: T2, Rabbit muscle SGP (Oryctolagus cuniculus, UniProt P13280); test: Self-glucosylation activity of rabbit muscle SGP (glycogenin); assay type: biochemical; conditions: for inhibition of the self-glucosylating protein in rabbit muscle: act as alternative substrates
T2 construct: from tissue; host or cells: rabbit muscle
T2 sequence (P13280 1-333): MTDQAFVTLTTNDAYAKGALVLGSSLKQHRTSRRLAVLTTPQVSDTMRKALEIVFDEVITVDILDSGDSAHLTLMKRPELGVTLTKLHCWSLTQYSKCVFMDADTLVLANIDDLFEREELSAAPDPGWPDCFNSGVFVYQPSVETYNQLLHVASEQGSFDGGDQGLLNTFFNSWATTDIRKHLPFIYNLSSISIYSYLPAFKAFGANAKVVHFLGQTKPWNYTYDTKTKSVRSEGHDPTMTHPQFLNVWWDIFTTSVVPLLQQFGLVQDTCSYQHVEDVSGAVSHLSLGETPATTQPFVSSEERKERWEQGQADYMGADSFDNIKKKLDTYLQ

[1] = system: proteins of molecular weight higher than SGP; conditions: 16 fold purified extract, 24 hr
[2] = target: amylogenin (self-glucosylating protein, SGP) from maize (Zea mays) endosperm (Zea mays) (UniProt P80607)

O=[N+]([O-])c1ccc(O[C@@H]2O[C@H](CO)[C@@H](O)[C@H](O)[C@H]2O)cc1 [p-nitrophenyl-beta-glucoside]
inhibitory effect on activity of sweet corn SGP (sweet corn SGP): no effect

O=C(O)CN(CCN(CC(=O)O)CC(=O)O)CC(=O)O [EDTA, ethylene diamine tetra acetate]
sweet corn SGP activity after treatment with chelator (sweet corn SGP; treated with EDTA): looses all its activity

[Ca+2] [Calcium]
stimulating effect of divalent cation on sweet corn SGP activity (sweet corn SGP): no stimulatory effect

synthetic peptide comprising the same amino acid sequence as the glucosylated tryptic peptide T2: synthetic peptide with the sequence of tryptic peptide T2 (SEQ ID NO: 2, E G A N F V X G Y P F S L R) (EGANFVXGYPFSLR; not fully specified; X: residue not identified in the source)
inhibitory effect on activity of sweet corn SGP (sweet corn SGP): No effect

O=[N+]([O-])c1ccc(OC2O[C@H](CO)[C@@H](O[C@H]3O[C@H](CO)[C@@H](O)[C@H](O)[C@H]3O)[C@H](O)[C@H]2O)cc1 (some centres unmarked) [p-nitro-phenylmaltose]
inhibition of the self-glucosylating protein in rabbit muscle (Rabbit muscle SGP; result in words): inhibited

N=C(N)NCCC[C@H](N)C(=O)O [arginine]
inhibitory effect on activity of sweet corn SGP (sweet corn SGP): No effect

[Mg+2] [magnesium]
maximum stimulating effect on sweet corn SGP (sweet corn SGP; at 10 mM concentration): about 50%

O=[N+]([O-])c1ccc(OC2O[C@H](CO)[C@@H](O[C@H]3O[C@H](CO)[C@@H](O[C@H]4O[C@H](CO)[C@@H](O)[C@H](O)[C@H]4O)[C@H](O)[C@H]3O)[C@H](O)[C@H]2O)cc1 (some centres unmarked) [p-nitrophenylmaltotriose]
inhibition of the self-glucosylating protein in rabbit muscle (Rabbit muscle SGP; result in words): inhibited

O=[N+]([O-])c1ccc(OC2O[C@H](CO)[C@@H](O[C@H]3O[C@H](CO)[C@@H](O[C@H]4O[C@H](CO)[C@@H](O[C@H]5O[C@H](CO)[C@@H](O)[C@H](O)[C@H]5O)[C@H](O)[C@H]4O)[C@H](O)[C@H]3O)[C@H](O)[C@H]2O)cc1 (some centres unmarked) [p-nitrophenyl- maltotetrose]
inhibition of the self-glucosylating protein in rabbit muscle (Rabbit muscle SGP; result in words): inhibited

[Cl][Mn][Cl] [Manganese, MnCl2]
stimulation of muscle SGP by divalent cation (Rabbit muscle SGP; result in words): stimulated
stimulating effect of divalent cation on sweet corn SGP activity (sweet corn SGP): most potent stimulating effect
effect on radioglucosylation of higher molecular weight proteins ([1]; 1 mM): proceeds
effect on radioglucosylation of higher molecular weight proteins ([1]; 5 mM): inhibited

O=[N+]([O-])c1ccc(O[C@H]2O[C@H](CO)[C@@H](O)[C@H](O)[C@H]2O)cc1 [p-nitrophenyl-alpha-glucoside]
inhibitory effect on activity of sweet corn SGP (sweet corn SGP): no effect

Nc1ncnc2c1ncn2[C@@H]1O[C@H](COP(=O)(O)OP(=O)(O)OP(=O)(O)O)[C@@H](O)[C@H]1O [ATP, adenosine triphosphate]
IC50 (Rabbit muscle SGP; read-out: concentration giving 50% inhibition of rabbit muscle SGP): 3.5 mM
IC50 (sweet corn SGP): 0.1 mM
inhibitory effect on activity of sweet corn SGP (sweet corn SGP): potent inhibitor
potency as inhibitor of sweet corn SGP relative to rabbit muscle SGP (sweet corn SGP; sweet corn SGP vs rabbit muscle SGP): 30 fold

TPCK-trypsin (enzyme)
proteolysis (trypsinolysis) of SGP [2]: 70%

O=[N+]([O-])c1ccc(O)cc1 [p-Nitrophenol]
inhibitory effect on activity of sweet corn SGP (sweet corn SGP): no effect
